Test results as given in PubChem BioAssay AID1259407 (Chemical Carcinogenesis Research Information System (CCRIS), 2018).
The source made the active and inactive calls. The rule behind the calls is not given here.

Tested on: CCRIS mutagenicity, Ames/micronucleus/aberration tests
Assay: CCRIS mutagenicity studies
[1] = Test System: AMES SALMONELLA TYPHIMURIUM, Strain/Indicator: TA98, Metabolic Activation: NONE, Method: STANDARD PLATE
[2] = Test System: AMES SALMONELLA TYPHIMURIUM, Strain/Indicator: TA100, Metabolic Activation: NONE, Method: STANDARD PLATE
[3] = Test System: AMES SALMONELLA TYPHIMURIUM, Strain/Indicator: TA1535, Metabolic Activation: NONE, Method: STANDARD PLATE
[4] = Test System: AMES SALMONELLA TYPHIMURIUM, Strain/Indicator: TA1537, Metabolic Activation: NONE, Method: STANDARD PLATE
[5] = Test System: AMES SALMONELLA TYPHIMURIUM, Strain/Indicator: TA1538, Metabolic Activation: NONE, Method: STANDARD PLATE
[6] = Test System: MOUSE LYMPHOMA, Strain/Indicator: L5178Y (TK+/TK-), Metabolic Activation: NONE, Method: SUSPENSION/PLATE

Cc1ccccc1O
mutagenic call (Test System: Ames Salmonella typhimurium, Strain/Indicator: TA98, Metabolic Activation: Hamster, Liver, S-9, Aroclor 1254 (10%), Method: Preincubation): inactive; negative | mutagenic call (Test System: Ames Salmonella typhimurium, Strain/Indicator: TA98, Metabolic Activation: None, Method: Preincubation): inactive; negative | mutagenic call (Test System: Ames Salmonella typhimurium, Strain/Indicator: TA98, Metabolic Activation: Rat, Liver, S-9, Aroclor 1254 (10%), Method: Preincubation): inactive; negative | mutagenic call (Test System: Ames Salmonella typhimurium, Strain/Indicator: TA100, Metabolic Activation: Hamster, Liver, S-9, Aroclor 1254 (10%), Method: Preincubation): inactive; negative | mutagenic call (Test System: Ames Salmonella typhimurium, Strain/Indicator: TA100, Metabolic Activation: None, Method: Preincubation): inactive; negative | mutagenic call (Test System: Ames Salmonella typhimurium, Strain/Indicator: TA100, Metabolic Activation: Rat, Liver, S-9, Aroclor 1254 (10%), Method: Preincubation): inactive; negative | mutagenic call (Test System: Ames Salmonella typhimurium, Strain/Indicator: TA1535, Metabolic Activation: Hamster, Liver, S-9, Aroclor 1254 (10%), Method: Preincubation): inactive; negative | mutagenic call (Test System: Ames Salmonella typhimurium, Strain/Indicator: TA1535, Metabolic Activation: None, Method: Preincubation): inactive; negative | mutagenic call (Test System: Ames Salmonella typhimurium, Strain/Indicator: TA1535, Metabolic Activation: Rat, Liver, S-9, Aroclor 1254 (10%), Method: Preincubation): inactive; negative | mutagenic call (Test System: Ames Salmonella typhimurium, Strain/Indicator: TA1537, Metabolic Activation: Hamster, Liver, S-9, Aroclor 1254 (10%), Method: Preincubation): inactive; negative | mutagenic call (Test System: Ames Salmonella typhimurium, Strain/Indicator: TA1537, Metabolic Activation: None, Method: Preincubation): inactive; negative | mutagenic call (Test System: Ames Salmonella typhimurium, Strain/Indicator: TA1537, Metabolic Activation: Rat, Liver, S-9, Aroclor 1254 (10%), Method: Preincubation): inactive; negative

CCn1c2ccccc2c2ccccc21
mutagenic call (Test System: UDS PRIMARY RAT HEPATOCYTES, Strain/Indicator: THY INCORP, Metabolic Activation: NONE, Method: AUTORADIOGRAPHY): active; positive

O=C1C=CC(=O)N1c1ccc(Cc2ccc(N3C(=O)C=CC3=O)cc2)cc1
mutagenic call (Test System: AMES SALMONELLA TYPHIMURIUM, Strain/Indicator: TA98, Metabolic Activation: HAMSTER, LIVER, S-9, AROCLOR 1254 (10%), Method: STANDARD PLATE): inactive; negative | mutagenic call [1]: inactive; negative | mutagenic call (Test System: AMES SALMONELLA TYPHIMURIUM, Strain/Indicator: TA98, Metabolic Activation: RAT, LIVER, S-9, AROCLOR 1254 (10%), Method: STANDARD PLATE): inactive; negative | mutagenic call (Test System: AMES SALMONELLA TYPHIMURIUM, Strain/Indicator: TA100, Metabolic Activation: HAMSTER, LIVER, S-9, AROCLOR 1254 (10%), Method: STANDARD PLATE): inactive; negative | mutagenic call [2]: inactive; negative | mutagenic call (Test System: AMES SALMONELLA TYPHIMURIUM, Strain/Indicator: TA100, Metabolic Activation: RAT, LIVER, S-9, AROCLOR 1254 (10%), Method: STANDARD PLATE): inactive; negative | mutagenic call (Test System: AMES SALMONELLA TYPHIMURIUM, Strain/Indicator: TA1535, Metabolic Activation: HAMSTER, LIVER, S-9, AROCLOR 1254 (10%), Method: STANDARD PLATE): inactive; negative | mutagenic call [3]: inactive; negative | mutagenic call (Test System: AMES SALMONELLA TYPHIMURIUM, Strain/Indicator: TA1535, Metabolic Activation: RAT, LIVER, S-9, AROCLOR 1254 (10%), Method: STANDARD PLATE): inactive; negative | mutagenic call (Test System: AMES SALMONELLA TYPHIMURIUM, Strain/Indicator: TA1537, Metabolic Activation: HAMSTER, LIVER, S-9, AROCLOR 1254 (10%), Method: STANDARD PLATE): inactive; negative | mutagenic call [4]: inactive; negative | mutagenic call (Test System: AMES SALMONELLA TYPHIMURIUM, Strain/Indicator: TA1537, Metabolic Activation: RAT, LIVER, S-9, AROCLOR 1254 (10%), Method: STANDARD PLATE): inactive; negative | mutagenic call (Test System: AMES SALMONELLA TYPHIMURIUM, Strain/Indicator: TA1538, Metabolic Activation: HAMSTER, LIVER, S-9, AROCLOR 1254 (10%), Method: STANDARD PLATE): inactive; negative | mutagenic call [5]: inactive; negative | mutagenic call (Test System: AMES SALMONELLA TYPHIMURIUM, Strain/Indicator: TA1538, Metabolic Activation: RAT, LIVER, S-9, AROCLOR 1254 (10%), Method: STANDARD PLATE): inactive; negative | mutagenic call [6]: inactive; negative. reevaluation of results: negative | mutagenic call (Test System: MOUSE LYMPHOMA, Strain/Indicator: L5178Y (TK+/TK-), Metabolic Activation: RAT, LIVER, S-9, AROCLOR 1254, Method: SUSPENSION/PLATE): active; positive. reevaluation of results: equivocal

Cc1cc(Cl)ccc1N
mutagenic call (End Point: IN VITRO CHROMOSOMAL ABERRATIONS, Test System: CHINESE HAMSTER OVARY CELLS, Metabolic Activation: NONE): inactive; negative; authors report that the study may not have allowed sufficient time for | mutagenic call (End Point: IN VITRO CHROMOSOMAL ABERRATIONS, Test System: CHINESE HAMSTER OVARY CELLS, Metabolic Activation: RAT, LIVER, S-9, AROCLOR 1254): active; positive | mutagenic call [1]: inactive; negative | mutagenic call (Test System: AMES SALMONELLA TYPHIMURIUM, Strain/Indicator: TA98, Metabolic Activation: RAT, LIVER, S-9, AROCLOR 1254, Method: STANDARD PLATE): active; positive | mutagenic call (Test System: AMES SALMONELLA TYPHIMURIUM, Strain/Indicator: TA98, Metabolic Activation: RAT, LIVER, S-9, CLOPHEN A50, Method: STANDARD PLATE): active; positive | mutagenic call [2]: inactive; negative | mutagenic call (Test System: AMES SALMONELLA TYPHIMURIUM, Strain/Indicator: TA100, Metabolic Activation: RAT, LIVER, S-9, AROCLOR 1254, Method: STANDARD PLATE): inactive; negative | mutagenic call (Test System: AMES SALMONELLA TYPHIMURIUM, Strain/Indicator: TA100, Metabolic Activation: RAT, LIVER, S-9, CLOPHEN A50, Method: STANDARD PLATE): active; positive | mutagenic call [3]: inactive; negative | mutagenic call (Test System: AMES SALMONELLA TYPHIMURIUM, Strain/Indicator: TA1535, Metabolic Activation: RAT, LIVER, S-9, CLOPHEN A50, Method: STANDARD PLATE): inactive; negative | mutagenic call [4]: inactive; negative | mutagenic call (Test System: AMES SALMONELLA TYPHIMURIUM, Strain/Indicator: TA1537, Metabolic Activation: RAT, LIVER, S-9, CLOPHEN A50, Method: STANDARD PLATE): inactive; negative

CC(=O)OCCN(CCC#N)c1ccc(N=Nc2ccc([N+](=O)[O-])cc2)cc1
mutagenic call (End Point: IN VITRO CHROMOSOMAL ABERRATIONS, Test System: CHL CELLS, Metabolic Activation: RAT, LIVER, S-9, SODIUM PHENOBARBITAL AND 5,6-BENZOFLAVONE): inactive; negative

N=c1ccc2c(-c3ccccc3C(=O)O)c3ccc(N)cc3oc-2c1
mutagenic call [5]: inactive; negative | mutagenic call (Test System: AMES SALMONELLA TYPHIMURIUM, Strain/Indicator: TA1538, Metabolic Activation: RAT, LIVER, S-9, AROCLOR 1254, Method: STANDARD PLATE): inactive; negative

O=c1[nH]c(=O)c2[nH]cnc2[nH]1
mutagenic call [6]: inactive; negative
